The values that follow come from PMC4415586 (European journal of medicinal chemistry, 2014).

One experiment has as its target T1, TNKS-2 (Homo sapiens, UniProt Q9H2K2).
T1 sequence (Q9H2K2 1-1166): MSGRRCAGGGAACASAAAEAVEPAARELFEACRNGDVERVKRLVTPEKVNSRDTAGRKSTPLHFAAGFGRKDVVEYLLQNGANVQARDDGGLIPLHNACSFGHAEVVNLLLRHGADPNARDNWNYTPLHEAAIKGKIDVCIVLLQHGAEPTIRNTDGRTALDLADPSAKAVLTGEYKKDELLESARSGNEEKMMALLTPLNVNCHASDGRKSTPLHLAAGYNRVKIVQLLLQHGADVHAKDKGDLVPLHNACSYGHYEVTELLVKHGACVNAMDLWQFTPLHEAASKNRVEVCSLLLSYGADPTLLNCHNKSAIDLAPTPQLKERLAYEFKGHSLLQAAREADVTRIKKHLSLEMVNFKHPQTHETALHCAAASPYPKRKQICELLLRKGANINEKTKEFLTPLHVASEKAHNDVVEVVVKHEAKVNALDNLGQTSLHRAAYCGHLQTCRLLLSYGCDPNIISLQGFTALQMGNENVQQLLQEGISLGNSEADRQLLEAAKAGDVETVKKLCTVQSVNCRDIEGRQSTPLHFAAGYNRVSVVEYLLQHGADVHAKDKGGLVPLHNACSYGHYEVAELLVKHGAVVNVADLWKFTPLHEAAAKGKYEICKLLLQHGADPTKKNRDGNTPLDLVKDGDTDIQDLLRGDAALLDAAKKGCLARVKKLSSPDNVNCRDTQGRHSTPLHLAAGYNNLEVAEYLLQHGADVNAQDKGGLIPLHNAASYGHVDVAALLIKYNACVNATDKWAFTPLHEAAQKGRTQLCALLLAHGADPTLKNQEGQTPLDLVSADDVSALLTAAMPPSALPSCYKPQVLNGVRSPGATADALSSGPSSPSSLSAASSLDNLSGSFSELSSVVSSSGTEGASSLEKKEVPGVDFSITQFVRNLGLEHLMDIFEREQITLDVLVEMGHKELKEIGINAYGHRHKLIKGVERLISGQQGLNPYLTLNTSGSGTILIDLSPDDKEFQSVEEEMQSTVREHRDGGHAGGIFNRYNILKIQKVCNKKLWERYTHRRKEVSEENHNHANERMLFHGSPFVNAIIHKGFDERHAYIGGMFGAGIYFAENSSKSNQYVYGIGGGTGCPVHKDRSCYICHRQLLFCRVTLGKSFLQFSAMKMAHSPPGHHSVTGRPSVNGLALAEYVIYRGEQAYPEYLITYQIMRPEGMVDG
Briefly: TNKS-2 autoribosylation assay. The settings on record: for inhibition at 1 µM: read-out: % of inhibition TNKS-2, 1 μM, duplicate.

The next experiment addresses T2, TNKS-1 (Homo sapiens, UniProt O95271).
T2 sequence (O95271 1-1327): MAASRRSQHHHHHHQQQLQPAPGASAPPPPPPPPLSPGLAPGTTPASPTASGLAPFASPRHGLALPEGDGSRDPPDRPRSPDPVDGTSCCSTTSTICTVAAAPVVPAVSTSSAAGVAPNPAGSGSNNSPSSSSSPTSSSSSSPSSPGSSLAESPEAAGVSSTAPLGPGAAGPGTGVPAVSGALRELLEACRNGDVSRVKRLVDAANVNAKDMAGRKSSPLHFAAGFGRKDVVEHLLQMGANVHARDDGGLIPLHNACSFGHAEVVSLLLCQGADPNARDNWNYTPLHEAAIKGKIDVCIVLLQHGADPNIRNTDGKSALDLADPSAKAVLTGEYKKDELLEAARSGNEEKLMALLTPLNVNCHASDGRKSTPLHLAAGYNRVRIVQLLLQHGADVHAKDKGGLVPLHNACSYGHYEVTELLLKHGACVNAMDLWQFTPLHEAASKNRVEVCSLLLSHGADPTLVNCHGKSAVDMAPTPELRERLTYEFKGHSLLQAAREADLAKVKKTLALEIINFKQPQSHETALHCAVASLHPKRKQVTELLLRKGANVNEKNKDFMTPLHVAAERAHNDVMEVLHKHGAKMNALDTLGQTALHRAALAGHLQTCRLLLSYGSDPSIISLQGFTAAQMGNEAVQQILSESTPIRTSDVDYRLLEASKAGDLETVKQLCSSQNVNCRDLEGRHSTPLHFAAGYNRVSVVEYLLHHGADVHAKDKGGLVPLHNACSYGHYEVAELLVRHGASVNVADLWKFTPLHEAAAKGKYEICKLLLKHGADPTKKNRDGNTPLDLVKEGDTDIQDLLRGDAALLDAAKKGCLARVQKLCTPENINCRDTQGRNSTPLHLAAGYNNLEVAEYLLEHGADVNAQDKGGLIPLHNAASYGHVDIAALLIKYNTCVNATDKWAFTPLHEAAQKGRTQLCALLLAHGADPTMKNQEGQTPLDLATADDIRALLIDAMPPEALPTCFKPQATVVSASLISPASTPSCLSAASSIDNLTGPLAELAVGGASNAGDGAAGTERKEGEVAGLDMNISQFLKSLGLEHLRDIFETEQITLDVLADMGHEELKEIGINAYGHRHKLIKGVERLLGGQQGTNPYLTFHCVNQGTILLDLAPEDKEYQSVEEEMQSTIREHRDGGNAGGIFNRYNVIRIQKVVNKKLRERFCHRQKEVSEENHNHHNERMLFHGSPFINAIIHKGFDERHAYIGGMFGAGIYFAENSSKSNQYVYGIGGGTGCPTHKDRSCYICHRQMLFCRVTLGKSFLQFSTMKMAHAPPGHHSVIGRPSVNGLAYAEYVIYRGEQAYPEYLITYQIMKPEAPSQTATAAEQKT
Briefly: TNKS-1 autoribosylation assay. The settings on record: for inhibition at 1 µM: read-out: % of inhibition TNKS-1, 1 μM, duplicate; for % of inhibition TNKS-1: 1 μM, duplicate.

A further experiment has as its system DLD-1 cancer cells. In words: Colony growth assay, DLD-1. It counts as cell-based. The settings on record: 1, 5 and 10 μM, treated daily, 10 days.
Experiment [1] has as its system PARP enzymes (1–3, 6–8, 10–12, 14). Briefly: PARP selectivity panel. The conditions noted are these: 10 μM, duplicate.
In experiment [2] the test system is TCF transcriptional activity (Wnt) in DLD-1 colorectal cancer cells. In words: TCF-luciferase reporter. The settings on record: DLD-1 cells, 1 μM, 24 h. It counts as cell-based. In general terms: In a reporter assay the amount or activity of a reporter protein is the signal.
Experiment [3] has as its system RKO colorectal cancer cell line. In words: Cell growth inhibition, Wnt-negative RKO. The conditions noted are these: negative control cell line. It counts as cell-based.
The next experiment deals with PARP-2 (Homo sapiens, UniProt Q9UGN5). The conditions noted are these: 20 nM, reference compound.
PARP-2, sequence (Q9UGN5 whole entry): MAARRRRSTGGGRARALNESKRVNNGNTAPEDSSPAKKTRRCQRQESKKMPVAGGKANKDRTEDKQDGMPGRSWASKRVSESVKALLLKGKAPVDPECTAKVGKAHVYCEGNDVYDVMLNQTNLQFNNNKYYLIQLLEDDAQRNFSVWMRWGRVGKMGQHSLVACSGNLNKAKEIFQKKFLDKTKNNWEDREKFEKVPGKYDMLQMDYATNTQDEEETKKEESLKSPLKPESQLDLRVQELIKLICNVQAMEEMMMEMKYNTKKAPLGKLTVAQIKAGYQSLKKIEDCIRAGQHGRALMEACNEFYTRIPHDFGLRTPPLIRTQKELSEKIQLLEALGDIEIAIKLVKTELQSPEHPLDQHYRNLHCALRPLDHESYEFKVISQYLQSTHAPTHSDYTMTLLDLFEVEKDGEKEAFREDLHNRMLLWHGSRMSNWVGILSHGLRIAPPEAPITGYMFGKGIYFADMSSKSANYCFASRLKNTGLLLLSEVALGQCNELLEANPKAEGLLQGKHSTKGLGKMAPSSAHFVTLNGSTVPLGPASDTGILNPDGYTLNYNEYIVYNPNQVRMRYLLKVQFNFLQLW
The target in the next experiment is PARP-14 (Homo sapiens, UniProt Q460N5). Briefly: PARP-14 enzymatic assay. The settings on record: 100 μM.
PARP-14, sequence (Q460N5 whole entry): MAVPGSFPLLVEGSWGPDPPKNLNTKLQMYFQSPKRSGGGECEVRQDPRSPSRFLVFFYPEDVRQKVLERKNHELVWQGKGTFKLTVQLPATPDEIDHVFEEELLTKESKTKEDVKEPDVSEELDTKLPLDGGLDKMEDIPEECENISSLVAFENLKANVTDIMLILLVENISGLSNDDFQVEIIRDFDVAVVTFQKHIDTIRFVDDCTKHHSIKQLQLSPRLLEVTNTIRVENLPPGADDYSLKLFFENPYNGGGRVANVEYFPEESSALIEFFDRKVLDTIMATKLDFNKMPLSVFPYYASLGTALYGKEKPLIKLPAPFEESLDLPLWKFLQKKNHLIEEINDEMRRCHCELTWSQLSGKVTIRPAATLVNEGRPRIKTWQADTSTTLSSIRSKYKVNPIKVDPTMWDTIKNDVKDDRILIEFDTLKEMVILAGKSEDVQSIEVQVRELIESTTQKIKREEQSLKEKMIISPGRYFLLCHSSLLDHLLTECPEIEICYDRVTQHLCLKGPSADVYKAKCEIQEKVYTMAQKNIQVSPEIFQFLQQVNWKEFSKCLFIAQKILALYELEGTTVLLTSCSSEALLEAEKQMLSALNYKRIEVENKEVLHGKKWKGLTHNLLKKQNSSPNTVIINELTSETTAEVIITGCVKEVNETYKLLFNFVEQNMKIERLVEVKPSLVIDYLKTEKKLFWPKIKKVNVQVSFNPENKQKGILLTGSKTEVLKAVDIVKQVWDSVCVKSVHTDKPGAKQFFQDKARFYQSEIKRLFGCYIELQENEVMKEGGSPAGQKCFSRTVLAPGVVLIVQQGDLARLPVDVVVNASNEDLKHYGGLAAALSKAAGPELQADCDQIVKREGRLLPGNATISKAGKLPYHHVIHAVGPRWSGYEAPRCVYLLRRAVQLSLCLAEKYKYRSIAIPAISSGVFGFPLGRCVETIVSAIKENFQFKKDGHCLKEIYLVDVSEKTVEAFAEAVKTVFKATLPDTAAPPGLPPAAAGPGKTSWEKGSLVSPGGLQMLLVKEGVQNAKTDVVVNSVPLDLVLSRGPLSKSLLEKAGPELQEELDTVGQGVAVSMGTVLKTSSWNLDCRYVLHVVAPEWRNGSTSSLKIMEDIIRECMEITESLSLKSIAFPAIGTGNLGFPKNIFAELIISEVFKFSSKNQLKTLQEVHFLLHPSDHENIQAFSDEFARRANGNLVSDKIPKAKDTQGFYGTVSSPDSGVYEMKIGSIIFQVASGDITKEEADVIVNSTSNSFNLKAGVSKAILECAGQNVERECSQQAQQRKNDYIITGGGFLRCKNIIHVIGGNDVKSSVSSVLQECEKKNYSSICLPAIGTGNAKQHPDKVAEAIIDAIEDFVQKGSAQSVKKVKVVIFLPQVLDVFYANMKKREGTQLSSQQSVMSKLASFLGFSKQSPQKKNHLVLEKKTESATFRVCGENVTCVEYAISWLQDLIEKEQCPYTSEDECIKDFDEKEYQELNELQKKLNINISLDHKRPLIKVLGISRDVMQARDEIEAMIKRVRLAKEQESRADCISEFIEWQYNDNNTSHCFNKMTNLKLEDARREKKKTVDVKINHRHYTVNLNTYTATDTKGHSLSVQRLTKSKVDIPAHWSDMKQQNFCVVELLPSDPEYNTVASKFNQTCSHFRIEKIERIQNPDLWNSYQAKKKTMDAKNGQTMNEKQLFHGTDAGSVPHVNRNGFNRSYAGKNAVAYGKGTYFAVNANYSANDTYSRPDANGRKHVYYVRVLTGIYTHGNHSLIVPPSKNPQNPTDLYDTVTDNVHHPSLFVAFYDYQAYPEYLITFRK

In the case of `COc1ccc2sc3c(O)nc4ccccc4c3c2c1` [compound 6, 10-Methoxy[l]benzothieno[2,3-c]quinolin-6(5H)-one], the inhibition at 1 µM at TNKS-2 and at TNKS-1 was above 70% each time.
As for `COc1ccc2c(c1)nc(O)c1sc3ccccc3c12` [compound 7, 3-Methoxy[l]benzothieno[2,3-c]quinolin-6(5H)-one], the inhibition (usually how much of the control response was suppressed) at 1 µM on TNKS-2 was above 70%. In addition, the “% of inhibition TNKS-1” value on TNKS-1 was above 70%.
Turning to `O=c1[nH]c2ccccc2c2c1sc1ccc(O)cc12` [compound 8, 10-Hydroxy[l]benzothieno[2,3-c]quinolin-6(5H)-one], the inhibition at 1 µM on TNKS-1 is at most 90%.
As to `O=c1[nH]c2cc(O)ccc2c2c1sc1ccccc12` [compound 9, 3-Hydroxy[l]benzothieno[2,3-c]quinolin-6(5H)-one], at TNKS-1, the inhibition at 1 µM was at most 100%.
Turning to `O=c1[nH]c(-c2ccccc2)cc2c1sc1ccccc12` [compound 16, 3-Phenyl[1]benzothieno[2,3-c]pyridin-1(2H)-one], the inhibition at 1 µM on TNKS-1 turned out to be 84%.
As for `O=c1[nH]c(-c2ccccc2)nc2c3c(sc12)CCCC3` [compound 19, 2-Phenyl-6,7,8,9-tetrahydro-3H-benzo[4,5]thieno[3,2-d] pyrimidin-4-one], the “% of inhibition TNKS-1” value at TNKS-1 is “nearly inactive”.
Take `Cc1ccc(-c2nc3c(sc4ccccc43)c(=O)[nH]2)cc1` [compound 22, 2-p-Tolyl-3H-benzo[4,5]thieno[3,2-d]pyrimidin-4-one]: the inhibition at 1 µM at TNKS-1 came to 98%.
With `CC(C)(C)c1ccc(-c2nc3c(sc4ccccc43)c(=O)[nH]2)cc1` [compound 23, 2-(4-tert-Butyl-phenyl)-3H-benzo[4,5]thieno[3,2-d] pyrimidin-4-one], the “long-term growth inhibition of DLD-1 cells” value in the experiment with DLD-1 cancer cells was “marked efficacy”. Besides, the “inhibition of the other PARPs tested” value in experiment [1] is recorded as “below 20%”. In addition, the “TCF reporter activity inhibition” value in experiment [2] is “comparable fashion to the reference compounds 1 and IWR-1”. Moreover, the TNKS-2 inhibition entry on TNKS-2 (10 μM) is “fully inhibited”. In addition, the “growth inhibition of Wnt-negative RKO cells” value in experiment [3] was “marginal non-specific effects were only detected at concentrations higher than 10 μM”. In addition, the TNKS-1 inhibition result at TNKS-1 (10 μM) was “fully inhibited”.
Regarding Olaparib [AZD 2281], at PARP-2, the “% of inhibition PARP-2” value is listed as 100%. Besides, the “% inhibition PARP-14” value on PARP-14 is given as “less than 20%”.
